Results taken from publication PMC12865225 (Clinical and Translational Science, 2026).

What was measured:
[1] = tested on: T1, OAT1; assay: Uptake transport assay in OAT1-expressing HEK293 cells; format: cell-based, human; settings: 2 and 50 μM, 10 min
T1 construct: expressed in transfected cells; host or cells: HEK293 (recombinant baculovirus-mediated transduction)
Procedure: (§1) The human transporters OATP1B1, OATP1B3, OATP2B1, and OAT1‐OAT4 and a negative control protein (enhanced yellow fluorescent protein, eYFP) were transiently expressed in human embryonic kidney 293 (HEK293) cells by recombinant baculovirus‐mediated transduction. Baculoviruses carrying human genes for the transporters were prepared as reported previously. HEK293 cells were cultured in DMEM containing 10% fetal bovine serum at 37°C and 5% CO2 and passaged two to three times per week. For the transport studies, 0.05 × 10^6 cells for 48‐well plates (OATPs) or 0.06 × 10^6 cells for 24‐well plates (OATs) were seeded onto cell‐culture treated well plates coated with poly‐D‐lysine. After 1 day, cells were transduced to produce recombinant proteins by changing media to DMEM containing 30 μL (48‐well plates) or 60 μL (24‐well plates) of recombinant baculovirus and 3 mM (OATs) or 5 mM (OATPs) sodium butyrate in a total media volume of 500 μL. The cells were cultured for a further 2 days before the transport assays.
For the transport studies, media were removed and cells were washed once with warm transport uptake buffer (TP‐buffer—pH 7.4 HBSS with 25 mM HEPES and 4 mM sodium bicarbonate). Each experiment included triplicate (OATP) or duplicate (OAT) samples for every test condition. […]

[2] = molecular target: T2, OAT4 (Homo sapiens, UniProt Q9NSA0); assay: Uptake transport assay in OAT4-expressing HEK293 cells; format: cell-based; settings: for transport by OAT4: 2 and 50 μM, 10 min; for Vmax (pmol/106 cells/min) OAT4: uptake, 2 min
T2 construct: expressed in transfected cells; host or cells: HEK293 (recombinant baculovirus-mediated transduction)
T2 sequence (Q9NSA0 1-550): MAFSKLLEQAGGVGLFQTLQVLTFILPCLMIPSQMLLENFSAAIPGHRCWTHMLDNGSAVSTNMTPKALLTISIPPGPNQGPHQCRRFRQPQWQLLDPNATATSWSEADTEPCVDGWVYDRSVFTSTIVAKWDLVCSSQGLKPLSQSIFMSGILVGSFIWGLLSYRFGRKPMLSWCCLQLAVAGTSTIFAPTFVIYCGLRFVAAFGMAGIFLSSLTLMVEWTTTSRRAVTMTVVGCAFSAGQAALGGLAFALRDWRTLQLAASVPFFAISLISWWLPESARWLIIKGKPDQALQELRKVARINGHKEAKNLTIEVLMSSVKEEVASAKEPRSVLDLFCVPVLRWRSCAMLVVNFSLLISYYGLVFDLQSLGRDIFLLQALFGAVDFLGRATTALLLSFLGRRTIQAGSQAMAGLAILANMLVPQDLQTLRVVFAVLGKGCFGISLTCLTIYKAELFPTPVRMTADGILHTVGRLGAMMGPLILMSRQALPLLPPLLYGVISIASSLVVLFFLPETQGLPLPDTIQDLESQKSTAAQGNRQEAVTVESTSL
Procedure: as §1
For the transport studies, media were removed and cells were washed once with warm transport uptake buffer (TP‐buffer—pH 7.4 HBSS with 25 mM HEPES and 4 mM sodium bicarbonate). Each experiment included triplicate (OATP) or duplicate (OAT) samples for every test condition. The uptake was started by removing liquid from wells and applying warm TP‐buffer (200 μL for 24‐well plates or 125 μL for 48‐well plates) containing a test compound to cells. Transport assays were terminated after a pre‐specified incubation time (reported in figure legends) by removing substrate solution and washing cells three times with cold TP‐buffer (300 μL for 48‐well plates and 400 μL for 24‐well plates). For the liquid chromatography mass spectrometry (LC–MS) analysis, compounds were extracted from cells with 125 μL (48‐well plates) or 250 μL (24‐well plates) of an ultrapure‐water solution containing 75% methanol and 0.1% formic acid, shaking at 250 RPM for 30 min. […] Samples were transferred to well plates, centrifuged at 3000 g for 30 min, and transferred to a new well plate for the analysis.
Equation (2) (the Michaelis–Menten equation) was fit to the transport kinetic assay data. […] (2) Uptake=Vmax×S/Km+S

[3] = cited from earlier work; for Cmax: 1000 mg dose, read-out: total C max; for unbound fraction in plasma: static model input
[4] = molecular target: T3, OAT3 (Homo sapiens, UniProt Q8TCC7); assay: OAT3 inhibition with 30 min preincubation, fluorescein
T3 sequence (Q8TCC7 1-542): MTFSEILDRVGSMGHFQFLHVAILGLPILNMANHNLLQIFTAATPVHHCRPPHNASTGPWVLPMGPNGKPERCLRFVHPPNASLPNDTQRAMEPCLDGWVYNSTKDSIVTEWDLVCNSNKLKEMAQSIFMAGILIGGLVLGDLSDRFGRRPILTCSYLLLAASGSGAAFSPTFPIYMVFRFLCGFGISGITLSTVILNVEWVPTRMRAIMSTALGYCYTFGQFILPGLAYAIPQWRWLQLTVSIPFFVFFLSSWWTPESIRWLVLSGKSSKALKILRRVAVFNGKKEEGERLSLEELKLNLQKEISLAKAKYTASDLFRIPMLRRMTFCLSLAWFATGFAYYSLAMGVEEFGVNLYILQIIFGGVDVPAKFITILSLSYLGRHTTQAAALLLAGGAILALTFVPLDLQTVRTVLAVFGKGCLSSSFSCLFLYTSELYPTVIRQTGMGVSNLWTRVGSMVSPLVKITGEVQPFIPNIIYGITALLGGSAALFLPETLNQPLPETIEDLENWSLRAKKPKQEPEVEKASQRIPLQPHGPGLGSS
Procedure: In the OATP inhibition assays, inhibitors in warm TP‐buffer were directly applied to cells after media removal, followed by a 30‐min preincubation step in the presence of inhibitors. No preincubation step was included in the OAT inhibition assays. The inhibition assays were conducted as described above, except that inhibitors were included in the substrate solution. The rosuvastatin concentration was 2.5 μM in the OATP inhibition assays, and the transport assays were conducted for 2 min [24]. For the inhibition studies of OAT1 and OAT3, 5 μM fluorescein was assayed within 5 min, while 34 nM methotrexate within a 10 min assay was employed as the substrate for OAT2 and OAT4 [25, 26, 27, 28]. OAT1 and OAT3 cells were lysed with 200 μL of 1 M sodium hydroxide for 10 min, and 150 μL of these samples were transferred to a black well plate for fluorescein quantification. OAT2 and OAT4 cells were lysed with 200 μL of 0.1% Triton‐X100 for 10 min, and 150 μL of the samples were mixed with 4 mL of scintillation cocktail (Opti‐Fluor from PerkinElmer, Waltham, MA, USA). Each inhibition assay included a vehicle control without an inhibitor.
Cells were pre-incubated with the inhibitors and
vehicle for 30 min before the assay was initiated with fresh solutions of inhibitors and substrate.
The uptake into control cells was subtracted from the uptak e into OAT3-expressing cells for […]

transport by OAT1 [1]	transport by OAT4 [2]	Vmax (pmol/106 cells/min) OAT4 [2] [pmol/106 cells/min]	IC50 [4] [µM]	Structure (SMILES)	Cmax [3] [µM]	unbound fraction in plasma [3]
transported	transported	239	18.3	Cc1onc(-c2c(Cl)cccc2Cl)c1C(=O)N[C@@H]1C(=O)N2[C@@H]1SC(C)(C)[C@@H]2C(=O)O [Dicloxacillin]	67	0.02
transported	transported	245	30.1	Cc1onc(-c2c(F)cccc2Cl)c1C(=O)N[C@@H]1C(=O)N2[C@@H]1SC(C)(C)[C@@H]2C(=O)O [Flucloxacillin]	46	0.06
